Test results published in patent EP0819124B1, “AZOLE COMPOUNDS WITH ANTIMYCOTIC ACTIVITY FOR HUMAN AND VETERINARY USE” (ZAMBON GROUP S.p.A., priority 1995, dated 1996).
Values after ≈ are worked out from the molar mass of the structure shown. Where two headings read alike, the source gives them in different places.

Experiments:
[1] = system: C. spp * (5) (C. parapsilosis, lusitaniae, kefyr); test: In vitro antimycotic activity, strain panel (Table 2); assay type: cell-based; conditions: Lodderomyces parapsilosis, C. parapsilosis, lusitaniae, kefyr, 5 strains; for MIC50: read-out: MIC50; for MIC90: read-out: MIC90
Experimental: (§1) The determination of the activity inhibiting the growth of mycetes was evaluated by the macromethod of scalar brothdilutions in geometrical progression (M.R. McGinnis and M.G. Rinaldi, "Antifungal drugs: mechanisms of action, drug resistance, susceptibility testing and assay of activity in biological fluids", in Antibiotic in Laboratory Medicine, Ed. V. Lorian, Baltimora 1991).
(§2) As culture media Yeast Nitrogen Base broth (YNB) and Sabouraud Dextrose broth (SDB) were used for yeasts and moulds, respectively.
(§3) The results obtained in SDB (after incubation at 28°C for 7 days) were expressed as minimum inhibiting concentrations (MIC) the growth of mycetes, while those obtained in YNB (after incubation at 35°C for 48 hours) were expressed as concentrations able to inhibit at 50% (IC50) the growth of the yeast.
(§4) As reference compounds Fluconazole, Itraconazole and Genaconazole were used.
(§5) Note to the table: MIC expressed as µg/ml Within brackets the number of tested strains Table 3

C. albicans (7) = test: as above; assay type: cell-based; conditions: Candida albicans, C. albicans, 7 strains; for MIC50: read-out: MIC50; for MIC90: read-out: MIC90
Experimental: as §1, §2, §3, §4, §5

C. tropicalis (2) = test: as above; assay type: cell-based; conditions: Candida tropicalis; C. tropicalis, 2 strains; single value or range printed under head MIC50 MIC90; read-out: MIC
Experimental: as §1, §2, §3, §4, §5

C. neoformans (4) = test: as above; assay type: cell-based; conditions: Cryptococcus neoformans, C. neoformans, 4 strains; for MIC50: read-out: MIC50; for MIC90: read-out: MIC90
Experimental: as §1, §2, §3, §4, §5

Fusarium sp = test: In vitro antimycotic activity against recently isolated Fusarium strains (Tables 2 and 3); assay type: cell-based; conditions: for In vitro antimycotic activity: quantity and unit not given in Table 3
Experimental: as §1, §2, §3, §4, §5

Candida albicans 1040 = test: In vivo antimycotic activity in mice experimentally infected by C. albicans, oral route; parameters: species or system Charles River white mice (CD1 strain); conditions: for PD50 at 8th day / PD50 at 14th day: oral route, probits analysis; for PD50 at 8th day: 8 days from the infection; for PD50 at 14th day: 14 days from the infection; for antimycotic activity in comparison with the compounds of formula II, statement in words: test not named, only in vivo data are printed for R1 and R2
Experimental: Charles River white mice (CD1 strain) weighing from 23 to 25 g, normo-feeded with standard diet and water ad libitum were used.
A suspension (0.2 ml containing 2.5x10^7 cells/ml) of Candida albicans 1040 in physiologic solution was injected to each animal by venous route. Immediately after the infection and after 4, 24 and 48 hours, the animals received by oral route (in arabic gum at 2%) doses increasing in a geometrical progression of the compound to be tested. The infected group was used as control.
The observation of the mortality of the mice was prolonged up to 14 days. From the number of survived animals for each concentration the average protective dose (DP50) was calculated by probits analysis (L.Lison - "Statistica applicata alla biologia sperimentale. La programmazione dell'esperimento e l'analisi dei risultati" - Casa Editrice Ambrosiana, 1961).
Compounds R1 and R2 were used as comparative compounds.
Fluconazole and Itraconazole were used as reference compounds.

A. niger = test: In vitro antimycotic activity against recently isolated Aspergillus niger (Table 3); assay type: cell-based; conditions: A. niger strain 94-6222; quantity and unit not given in Table 3
Experimental: as §1, §2, §3, §4

C. krusei (2) = test: In vitro antimycotic activity, strain panel (Table 2); assay type: cell-based, Candida krusei; conditions: Pichia kudriavzevii
Experimental: as §1, §2, §3, §4, §5

C. albicans 1040 = test: In vitro antimycotic activity, macromethod of scalar broth dilutions (YNB); assay type: cell-based, Candida albicans; conditions: Candida albicans; C. albicans 1040; YNB, incubation at 35°C for 48 hours; read-out: IC50
Experimental: as §1, §2, §3, §4

C. neoformans = test: as above; assay type: cell-based; conditions: Cryptococcus neoformans; C. neoformans; YNB, incubation at 35°C for 48 hours; read-out: IC50
Experimental: as §1, §2, §3, §4

T.mentagrophytes = test: In vitro antimycotic activity, macromethod of scalar broth dilutions (SDB); assay type: cell-based, Trychophyton mentagrophytes; conditions: Trichophyton mentagrophytes, 168 h; T.mentagrophytes; SDB, incubation at 28°C for 7 days; read-out: MIC
Experimental: as §1, §2, §3, §4

A. fumigatus = test: as above; assay type: cell-based; conditions: Aspergillus fumigatus, 168 h
Experimental: as §1, §2, §3, §4

Trichosporon sp. (1) = test: In vitro antimycotic activity, strain panel (Table 2); assay type: cell-based; conditions: Trichosporon sp., 1 strain; single value under head MIC50 MIC90; read-out: MIC
Experimental: as §1, §2, §3, §4, §5

B. capitatus (1) = test: as above; assay type: cell-based; conditions: Magnusiomyces capitatus; B. capitatus, 1 strain; single value under head MIC50 MIC90; read-out: MIC
Experimental: as §1, §2, §3, §4, §5

C. glabrata (2) = test: as above; assay type: cell-based, Candida glabrata; conditions: Nakaseomyces glabratus; C. glabrata, 2 strains; single value or range printed under head MIC50 MIC90; read-out: MIC
Experimental: as §1, §2, §3, §4, §5

[2] = A. fumigatus, SDB, incubation at 28°C for 7 days, read-out: MIC

CCC(C)n1ncn(-c2ccc(N3CCN(c4ccc(OCC5COC(Cn6cncn6)(c6ccc(Cl)cc6Cl)O5)cc4)CC3)cc2)c1=O (stereo not shown) [Itraconazole, reference compound]
MIC50 [1]: ≤ 0.03 µg/mL | MIC90 [1]: 0.06 µg/mL (≈ 0.085 µM) | MIC50 (C. albicans (7)): 0.06 µg/mL (≈ 0.085 µM) | MIC90 (C. albicans (7)): 0.12 µg/mL (≈ 0.17 µM) | MIC (C. tropicalis (2)): 0.1 µg/mL (≈ 0.142 µM) | MIC50 (C. neoformans (4)): ≤ 0.03 µg/mL | MIC90 (C. neoformans (4)): 0.1 µg/mL (≈ 0.142 µM) | In vitro antimycotic activity (Fusarium sp; Fusarium sp strain 81-256): 2 | In vitro antimycotic activity (Fusarium sp; Fusarium sp strain 86-3369): 2-16 | In vitro antimycotic activity (Fusarium sp; Fusarium sp strain 88-2116): 2-8 | In vitro antimycotic activity (Fusarium sp; Fusarium sp strain 946301): 2-16 | % percentage of survival after day 3 (Candida albicans 1040; mice infected by C. albicans, dose 25 mg/kg/os, day 3): 100% | % percentage of survival after day 6 (Candida albicans 1040; mice infected by C. albicans, dose 25 mg/kg/os, day 6): 100% | PD50 at 8th day (Candida albicans 1040): 2.31 mg/kg/os | PD50 at 14th day (Candida albicans 1040): >8 mg/kg/os | In vitro antimycotic activity (A. niger): ≤0.03 | MIC (C. krusei (2); C. krusei, 2 strains, range printed under head MIC50 MIC90, read-out: MIC): 0.03 to 0.12 µg/mL (≈ 0.0425 to 0.17 µM)

CC(C)(COCC(F)(F)C(F)F)C(O)(Cn1cncn1)c1ccc(F)cc1F (racemic) [Compound 10, (±)-1-(1H-1,2,4-triazolyl)-2-hydroxy-2-(2,4-difluorophenyl)-3,3-dimethyl-4-(2,2,3,3-tetrafluoropropoxy)butane]
IC50 (C. albicans 1040): 0.0156 µg/mL (≈ 0.0379 µM) | IC50 (C. neoformans): 0.0625 µg/mL (≈ 0.152 µM) | MIC (T.mentagrophytes): 0.5 µg/mL (≈ 1.22 µM) | MIC (A. fumigatus; [2]): 8 µg/mL (≈ 19.4 µM)

CC(COC(F)(F)C(F)F)C(O)(Cn1cncn1)c1ccc(Cl)cc1 (racemic) [Compound 4, (±)-1-(1H-1,2,4-triazolyl)-2-hydroxy-2-(4-chlorophenyl)-3-methyl-4-(1,1,2,2-tetrafluoroethoxy)butane]
IC50 (C. albicans 1040): 0.0312 µg/mL (≈ 0.0817 µM) | IC50 (C. neoformans): 0.5 µg/mL (≈ 1.31 µM) | PD50 at 8th day (Candida albicans 1040): 0.31 mg/kg/os | PD50 at 14th day (Candida albicans 1040): 1.29 mg/kg/os | MIC (T.mentagrophytes): 4 µg/mL (≈ 10.5 µM) | MIC (A. fumigatus; [2]): > 128 µg/mL

OC(Cn1cncn1)(Cn1cncn1)c1ccc(F)cc1F [Fluconazole, reference compound]
IC50 (C. albicans 1040): 0.5 µg/mL (≈ 1.63 µM) | MIC (Trichosporon sp. (1)): 32 µg/mL (≈ 104 µM) | MIC50 [1]: 1 µg/mL (≈ 3.27 µM) | MIC90 [1]: 2 µg/mL (≈ 6.53 µM) | MIC50 (C. albicans (7)): 4 µg/mL (≈ 13.1 µM) | MIC90 (C. albicans (7)): 32 µg/mL (≈ 104 µM) | MIC (B. capitatus (1)): 4 µg/mL (≈ 13.1 µM) | MIC (C. tropicalis (2)): 4 to 16 µg/mL (≈ 13.1 to 52.2 µM) | MIC50 (C. neoformans (4)): 1 µg/mL (≈ 3.27 µM) | MIC90 (C. neoformans (4)): 32 µg/mL (≈ 104 µM) | IC50 (C. neoformans): 2 µg/mL (≈ 6.53 µM) | PD50 at 8th day (Candida albicans 1040): 0.125 mg/kg/os | PD50 at 14th day (Candida albicans 1040): 0.61 mg/kg/os | MIC (T.mentagrophytes): 16 µg/mL (≈ 52.2 µM) | MIC (A. fumigatus): > 128 µg/mL

(±)-1-(1H-1,2,4-triazolyl)-2-hydroxy-2-(2,4-difluorophenyl)-3,3-dimethyl-4-ethoxy-butane [Compound R1, reference compound]
PD50 at 8th day (Candida albicans 1040): >4 mg/kg/os | PD50 at 14th day (Candida albicans 1040): >4 mg/kg/os | antimycotic activity in comparison with the compounds of formula II, statement in words (Candida albicans 1040): substantially inactive

(±)-1-(1H-1,2,4-triazolyl)-2-hydroxy-2-(2,4-difluorophenyl)-3-(2,2,3,3-tetrafluoropropoxy)butane [Compound R2, reference compound]
PD50 at 8th day (Candida albicans 1040): >4 mg/kg/os | PD50 at 14th day (Candida albicans 1040): >4 mg/kg/os | antimycotic activity in comparison with the compounds of formula II, statement in words (Candida albicans 1040): substantially inactive

CC(C)(COC(F)(F)C(F)F)C(O)(Cn1cncn1)c1ccc(F)cc1F (racemic) [Compound 5]
IC50 (C. albicans 1040): 0.0156 µg/mL (≈ 0.0393 µM) | MIC (Trichosporon sp. (1)): ≤ 0.03 µg/mL | MIC50 [1]: ≤ 0.03 µg/mL | MIC90 [1]: ≤ 0.03 µg/mL | MIC50 (C. albicans (7)): ≤ 0.03 µg/mL | MIC90 (C. albicans (7)): 0.5 µg/mL (≈ 1.26 µM) | MIC (B. capitatus (1)): 0.06 µg/mL (≈ 0.151 µM) | MIC (C. tropicalis (2)): 0.12 µg/mL (≈ 0.302 µM) | MIC50 (C. neoformans (4)): ≤ 0.03 µg/mL | MIC90 (C. neoformans (4)): ≤ 0.03 µg/mL | IC50 (C. neoformans): 0.0156 µg/mL (≈ 0.0393 µM) | MIC (Fusarium sp; Fusarium): 0.25 µg/mL (≈ 0.629 µM) | PD50 at 8th day (Candida albicans 1040): 0.50 mg/kg/os | PD50 at 14th day (Candida albicans 1040): 1.14 mg/kg/os | MIC50 (C. krusei (2)): ≤ 0.03 µg/mL | MIC90 (C. krusei (2)): 0.12 µg/mL (≈ 0.302 µM) | MIC (T.mentagrophytes): 0.25 µg/mL (≈ 0.629 µM) | MIC (C. glabrata (2)): 0.12 µg/mL (≈ 0.302 µM) | MIC (A. fumigatus; [2]): 8 µg/mL (≈ 20.1 µM)
